Test results taken from ChEMBL document CHEMBL1201862, “PubChem BioAssay data set” (2004).
Active and inactive are the calls of the source.

Legend:
[1] = target: T1, Leucine aminopeptidase (Plasmodium falciparum 3D7, UniProt Q8IL11); test: P. falciparum M17LAP inhibitors, primary screen, biochemical, fluorogenic H-Leu-NHMec substrate, 1536-well (AID 1619); type: functional
T1 sequence (Q8IL11 whole entry): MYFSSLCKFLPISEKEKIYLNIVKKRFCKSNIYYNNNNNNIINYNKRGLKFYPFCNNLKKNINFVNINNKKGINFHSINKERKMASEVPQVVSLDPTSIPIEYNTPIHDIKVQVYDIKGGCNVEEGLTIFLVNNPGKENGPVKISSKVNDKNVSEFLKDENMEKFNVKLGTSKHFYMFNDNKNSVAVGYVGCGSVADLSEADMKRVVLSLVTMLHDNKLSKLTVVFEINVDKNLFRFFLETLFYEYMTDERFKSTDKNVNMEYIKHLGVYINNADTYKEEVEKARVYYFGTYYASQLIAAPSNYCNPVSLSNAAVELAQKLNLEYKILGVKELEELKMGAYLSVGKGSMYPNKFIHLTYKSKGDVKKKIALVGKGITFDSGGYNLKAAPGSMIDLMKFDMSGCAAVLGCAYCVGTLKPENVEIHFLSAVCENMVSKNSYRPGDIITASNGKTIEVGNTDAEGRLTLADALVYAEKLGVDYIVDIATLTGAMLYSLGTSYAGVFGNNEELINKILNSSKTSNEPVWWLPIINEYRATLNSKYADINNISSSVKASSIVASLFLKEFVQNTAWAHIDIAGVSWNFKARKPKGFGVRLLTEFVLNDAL

[2] = target: Genome polyprotein (dengue virus type 2, UniProt P29990); test: Dengue-2 NS5 methyltransferase inhibitors, primary screen, biochemical, confirmation dose response (AID 588689); type: functional
Chain of Genome polyprotein (P29990 2492-3391 limits assumed): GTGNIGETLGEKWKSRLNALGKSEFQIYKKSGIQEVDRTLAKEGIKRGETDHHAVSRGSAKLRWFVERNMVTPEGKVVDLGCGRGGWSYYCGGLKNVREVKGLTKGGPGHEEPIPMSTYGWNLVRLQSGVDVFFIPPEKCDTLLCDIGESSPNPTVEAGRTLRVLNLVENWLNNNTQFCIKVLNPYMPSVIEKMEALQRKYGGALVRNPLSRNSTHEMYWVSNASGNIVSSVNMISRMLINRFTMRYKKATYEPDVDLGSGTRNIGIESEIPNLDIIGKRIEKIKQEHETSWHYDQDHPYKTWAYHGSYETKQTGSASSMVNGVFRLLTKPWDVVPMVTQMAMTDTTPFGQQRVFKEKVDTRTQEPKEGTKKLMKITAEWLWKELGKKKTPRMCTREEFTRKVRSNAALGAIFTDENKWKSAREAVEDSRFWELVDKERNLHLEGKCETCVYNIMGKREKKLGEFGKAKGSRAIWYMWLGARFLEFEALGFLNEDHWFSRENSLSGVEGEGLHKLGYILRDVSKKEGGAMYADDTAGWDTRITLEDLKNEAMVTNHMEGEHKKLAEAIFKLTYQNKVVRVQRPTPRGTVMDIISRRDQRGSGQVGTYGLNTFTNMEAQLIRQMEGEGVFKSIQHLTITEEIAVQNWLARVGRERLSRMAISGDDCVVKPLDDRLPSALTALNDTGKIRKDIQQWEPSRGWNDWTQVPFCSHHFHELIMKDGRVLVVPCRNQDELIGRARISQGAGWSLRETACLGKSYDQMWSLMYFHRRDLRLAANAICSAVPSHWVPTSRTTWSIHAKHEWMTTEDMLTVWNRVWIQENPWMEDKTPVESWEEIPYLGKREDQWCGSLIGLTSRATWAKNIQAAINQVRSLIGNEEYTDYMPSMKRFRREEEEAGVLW

[3] = target: fMet-Leu-Phe receptor (Homo sapiens, UniProt P21462); test: FPR ligands, dose response (AID 519); type: functional
Chain of fMet-Leu-Phe receptor (P21462 whole entry): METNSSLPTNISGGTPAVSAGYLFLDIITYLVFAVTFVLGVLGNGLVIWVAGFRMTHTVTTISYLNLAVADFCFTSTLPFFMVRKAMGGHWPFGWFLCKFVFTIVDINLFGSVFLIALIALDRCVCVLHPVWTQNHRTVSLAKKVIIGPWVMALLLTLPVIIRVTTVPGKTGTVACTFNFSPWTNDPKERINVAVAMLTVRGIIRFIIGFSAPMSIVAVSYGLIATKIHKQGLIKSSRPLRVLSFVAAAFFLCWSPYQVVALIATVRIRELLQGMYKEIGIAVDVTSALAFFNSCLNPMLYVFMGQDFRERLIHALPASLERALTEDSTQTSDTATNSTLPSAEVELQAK

[4] = target: T2, Corticotropin-releasing factor receptor 2/Corticotropin-releasing factor-binding protein (Homo sapiens, UniProt P24387+Q13324); test: activators of CRF receptor 2 with binding protein – uHTS hits, confirmation (AID 602473); type: functional; conditions: read-out: EC50_Mean
T2 sequence (Q13324 whole entry): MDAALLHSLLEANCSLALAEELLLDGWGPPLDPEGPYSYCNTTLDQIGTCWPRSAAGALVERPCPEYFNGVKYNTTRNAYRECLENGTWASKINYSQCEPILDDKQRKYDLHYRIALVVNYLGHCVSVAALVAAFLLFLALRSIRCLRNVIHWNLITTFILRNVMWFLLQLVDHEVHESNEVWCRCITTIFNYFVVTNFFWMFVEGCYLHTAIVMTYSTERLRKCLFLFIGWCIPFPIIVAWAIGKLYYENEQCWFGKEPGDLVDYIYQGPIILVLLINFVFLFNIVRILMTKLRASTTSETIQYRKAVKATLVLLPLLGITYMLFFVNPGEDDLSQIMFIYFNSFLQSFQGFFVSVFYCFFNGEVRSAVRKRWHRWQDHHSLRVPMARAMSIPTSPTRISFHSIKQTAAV
T2 sequence (P24387 whole entry): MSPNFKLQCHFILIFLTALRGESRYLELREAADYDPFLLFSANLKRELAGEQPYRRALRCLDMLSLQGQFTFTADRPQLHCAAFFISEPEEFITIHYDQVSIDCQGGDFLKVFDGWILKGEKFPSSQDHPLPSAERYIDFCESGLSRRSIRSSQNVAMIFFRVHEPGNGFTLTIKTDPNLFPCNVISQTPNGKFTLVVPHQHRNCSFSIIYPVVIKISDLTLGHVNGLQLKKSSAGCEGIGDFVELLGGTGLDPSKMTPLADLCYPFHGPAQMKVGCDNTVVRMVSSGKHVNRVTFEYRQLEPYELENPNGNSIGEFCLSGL

[5] = MITF Orthogonal Assay: SK-MEL-5 CTG Assay Measured in Cell-Based System Using Plate Reader - 2084-02_Inhibitor_Dose_DryPowder_Activity_Set7.; type: functional
[6] = TRPM1 promoter luciferase reporter signal decrease, dose response, MITF inhibitor project, cell-based, SK-MEL-5, dry powder, set 8 (AID 624430); type: functional
[7] = MITF: Counter assay: A375 proliferation Measured in Cell-Based System Using Plate Reader - 2084-03_Inhibitor_Dose_DryPowder_Activity_Set8.; type: functional; conditions: A-375
[8] = BHK-21 cell cytotoxicity, cytotoxicity control for flavivirus guanylyltransferase probe project, secondary screen (AID 624078); type: functional
[9] = target: T3, Caspase-6 (Homo sapiens, UniProt P55212); test: human caspase-6 inhibitors, dose response, biochemical, VEID-R110 fluorescence, cherry-pick (AID 720632)
T3 sequence (P55212 whole entry): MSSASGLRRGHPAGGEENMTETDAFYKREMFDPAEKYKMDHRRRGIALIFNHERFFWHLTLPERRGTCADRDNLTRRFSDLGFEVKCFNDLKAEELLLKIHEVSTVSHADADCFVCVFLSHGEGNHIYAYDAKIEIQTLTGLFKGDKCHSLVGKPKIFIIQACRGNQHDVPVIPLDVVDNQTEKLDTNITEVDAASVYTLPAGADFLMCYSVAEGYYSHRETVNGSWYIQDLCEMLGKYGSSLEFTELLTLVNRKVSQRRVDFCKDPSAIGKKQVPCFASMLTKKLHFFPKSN

[10] = target: T4, Zinc finger protein mex-5 (Caenorhabditis elegans, UniProt Q9XUB2); test: MEX-5/TCR-2 RNA interaction inhibitors, dose response, biochemical, C. elegans, fluorescence polarization (AID 1960)
T4 sequence (Q9XUB2 whole entry): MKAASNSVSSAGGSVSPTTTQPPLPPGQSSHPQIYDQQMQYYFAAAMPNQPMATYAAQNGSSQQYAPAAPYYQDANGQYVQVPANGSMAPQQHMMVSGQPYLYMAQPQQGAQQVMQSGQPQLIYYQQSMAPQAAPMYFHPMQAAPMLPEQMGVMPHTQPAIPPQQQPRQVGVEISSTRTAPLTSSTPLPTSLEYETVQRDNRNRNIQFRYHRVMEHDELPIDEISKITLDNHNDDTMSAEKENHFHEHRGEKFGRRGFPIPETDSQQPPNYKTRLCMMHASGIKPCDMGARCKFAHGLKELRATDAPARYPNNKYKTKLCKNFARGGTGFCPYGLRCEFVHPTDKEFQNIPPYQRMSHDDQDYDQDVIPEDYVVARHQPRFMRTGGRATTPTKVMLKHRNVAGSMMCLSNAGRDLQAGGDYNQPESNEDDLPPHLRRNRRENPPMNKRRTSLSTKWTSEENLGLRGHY

[11] = target: T5, Apoptotic protease-activating factor 1 (Homo sapiens, UniProt O14727); type: functional
T5 sequence (O14727 whole entry): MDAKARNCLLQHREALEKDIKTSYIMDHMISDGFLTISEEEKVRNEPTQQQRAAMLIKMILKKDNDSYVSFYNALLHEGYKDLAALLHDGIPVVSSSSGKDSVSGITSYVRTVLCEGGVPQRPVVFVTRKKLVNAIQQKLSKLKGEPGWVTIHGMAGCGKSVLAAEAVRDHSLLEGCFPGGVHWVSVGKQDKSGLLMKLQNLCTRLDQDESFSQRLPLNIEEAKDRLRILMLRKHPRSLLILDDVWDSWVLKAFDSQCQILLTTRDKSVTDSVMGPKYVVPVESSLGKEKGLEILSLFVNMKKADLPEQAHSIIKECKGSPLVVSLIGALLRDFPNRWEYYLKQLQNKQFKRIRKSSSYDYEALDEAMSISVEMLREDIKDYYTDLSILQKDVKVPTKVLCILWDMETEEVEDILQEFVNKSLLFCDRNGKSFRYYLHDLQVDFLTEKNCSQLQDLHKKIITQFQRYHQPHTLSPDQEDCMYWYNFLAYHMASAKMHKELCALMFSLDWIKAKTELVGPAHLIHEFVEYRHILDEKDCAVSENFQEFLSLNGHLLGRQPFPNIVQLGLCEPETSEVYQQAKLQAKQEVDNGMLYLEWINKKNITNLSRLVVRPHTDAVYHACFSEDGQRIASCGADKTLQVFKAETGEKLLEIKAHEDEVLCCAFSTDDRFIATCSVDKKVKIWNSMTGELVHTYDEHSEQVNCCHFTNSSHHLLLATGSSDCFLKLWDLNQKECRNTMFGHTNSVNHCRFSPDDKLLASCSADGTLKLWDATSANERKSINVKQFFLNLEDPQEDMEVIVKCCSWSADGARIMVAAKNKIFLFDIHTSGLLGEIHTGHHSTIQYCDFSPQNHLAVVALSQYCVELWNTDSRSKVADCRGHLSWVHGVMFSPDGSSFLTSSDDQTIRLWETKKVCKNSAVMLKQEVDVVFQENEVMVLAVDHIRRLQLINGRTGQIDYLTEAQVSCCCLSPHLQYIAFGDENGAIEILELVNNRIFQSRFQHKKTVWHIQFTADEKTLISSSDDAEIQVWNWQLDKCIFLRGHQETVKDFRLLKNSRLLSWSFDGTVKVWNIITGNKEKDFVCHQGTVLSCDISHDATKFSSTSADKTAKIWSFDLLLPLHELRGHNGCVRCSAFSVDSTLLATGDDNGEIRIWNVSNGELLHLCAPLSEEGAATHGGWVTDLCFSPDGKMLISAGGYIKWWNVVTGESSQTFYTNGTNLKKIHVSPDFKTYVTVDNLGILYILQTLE

[12] = target: Caspase-9 (Homo sapiens, UniProt P55211); test: caspase-9 enzyme inhibition, dose response, selectivity assay for caspase-6 inhibitor project, biochemical, fluorescence, plate reader, cherry-picked samples (AID 743293)
Chain of Caspase-9 (P55211 1-315 limits assumed): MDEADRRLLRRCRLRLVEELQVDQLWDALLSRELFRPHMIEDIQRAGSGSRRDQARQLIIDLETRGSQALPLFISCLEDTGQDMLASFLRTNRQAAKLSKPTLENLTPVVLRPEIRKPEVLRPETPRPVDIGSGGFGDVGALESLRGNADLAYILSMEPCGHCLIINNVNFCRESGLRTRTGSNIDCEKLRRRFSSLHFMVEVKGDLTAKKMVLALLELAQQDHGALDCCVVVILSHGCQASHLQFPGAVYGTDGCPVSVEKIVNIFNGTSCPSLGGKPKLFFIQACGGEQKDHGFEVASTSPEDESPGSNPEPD
Chain of Caspase-9 (P55211 331-416 limits assumed): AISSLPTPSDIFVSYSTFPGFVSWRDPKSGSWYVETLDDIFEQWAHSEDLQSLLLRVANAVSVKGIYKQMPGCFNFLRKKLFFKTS

[13] = target: Caspase-7 (Homo sapiens, UniProt P55210); test: human caspase-7 inhibitors, dose response, selectivity assay for caspase-6 inhibitor project, biochemical, DEVD-R110 fluorescence, cherry-pick (AID 743295)
Chain of Caspase-7 (P55210 24-198 limits assumed): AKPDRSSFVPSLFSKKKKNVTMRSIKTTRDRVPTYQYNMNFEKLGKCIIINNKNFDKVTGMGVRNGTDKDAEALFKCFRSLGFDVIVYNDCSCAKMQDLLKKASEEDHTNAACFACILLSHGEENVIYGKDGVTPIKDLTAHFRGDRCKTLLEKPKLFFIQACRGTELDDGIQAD
Chain of Caspase-7 (P55210 207-303 limits assumed): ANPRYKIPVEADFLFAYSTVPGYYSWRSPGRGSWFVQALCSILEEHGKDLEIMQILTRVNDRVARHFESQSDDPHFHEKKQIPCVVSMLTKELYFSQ

[14] = target: T6, Protein RecA (Mycobacterium tuberculosis, UniProt P9WHJ3); test: Fluorescence Cell-Free Homogeneous Dose Retest to Identify Inhibitors of RecA-Intein Splicing Activity. [Related pubchem assays (depositor defined):AID2097, AID2223, AID489010, AID492950]; type: functional
T6 sequence (P9WHJ3 whole entry): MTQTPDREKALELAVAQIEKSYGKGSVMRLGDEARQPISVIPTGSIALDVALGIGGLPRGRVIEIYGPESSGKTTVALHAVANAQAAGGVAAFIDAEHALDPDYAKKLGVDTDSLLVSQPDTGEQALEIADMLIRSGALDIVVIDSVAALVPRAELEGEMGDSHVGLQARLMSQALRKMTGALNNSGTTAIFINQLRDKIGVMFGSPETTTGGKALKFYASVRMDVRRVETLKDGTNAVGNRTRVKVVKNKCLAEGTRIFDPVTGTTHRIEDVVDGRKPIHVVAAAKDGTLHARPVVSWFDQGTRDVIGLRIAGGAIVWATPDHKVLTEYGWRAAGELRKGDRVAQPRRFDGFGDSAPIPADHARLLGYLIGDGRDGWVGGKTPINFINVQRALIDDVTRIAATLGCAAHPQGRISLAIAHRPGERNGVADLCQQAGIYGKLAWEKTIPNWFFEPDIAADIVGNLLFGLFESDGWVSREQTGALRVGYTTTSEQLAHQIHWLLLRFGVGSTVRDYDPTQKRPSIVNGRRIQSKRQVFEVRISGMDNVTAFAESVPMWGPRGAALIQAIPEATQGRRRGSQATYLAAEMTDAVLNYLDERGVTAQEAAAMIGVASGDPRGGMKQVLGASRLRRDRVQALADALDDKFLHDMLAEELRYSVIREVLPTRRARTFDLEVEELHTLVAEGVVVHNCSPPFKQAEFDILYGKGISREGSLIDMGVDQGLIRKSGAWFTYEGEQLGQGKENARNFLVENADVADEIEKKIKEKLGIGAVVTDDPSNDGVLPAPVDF

[15] = C. albicans growth with fluconazole, confirmation, fluorescence, retest (AID 2467); type: functional, cell-based
[16] = target: Dual specificity tyrosine-phosphorylation-regulated kinase 1A (Rattus norvegicus, UniProt Q63470); type: biochemical, Homo sapiens
[17] = microbe, parasite or virus in culture; type: functional; conditions: Mycobacterium tuberculosis
[18] = target: T7, RNA-binding protein pos-1 (Caenorhabditis elegans, UniProt G5EF15); test: inhibitors of POS-1/mex-3 RNA binding, dose response, biochemical, fluorescence polarization (AID 1964);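 further: purified POS-1 fused to maltose binding protein made in E. coli; potency of compounds blocking POS-1 binding to fluorescent RNA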
T7 sequence (G5EF15 whole entry): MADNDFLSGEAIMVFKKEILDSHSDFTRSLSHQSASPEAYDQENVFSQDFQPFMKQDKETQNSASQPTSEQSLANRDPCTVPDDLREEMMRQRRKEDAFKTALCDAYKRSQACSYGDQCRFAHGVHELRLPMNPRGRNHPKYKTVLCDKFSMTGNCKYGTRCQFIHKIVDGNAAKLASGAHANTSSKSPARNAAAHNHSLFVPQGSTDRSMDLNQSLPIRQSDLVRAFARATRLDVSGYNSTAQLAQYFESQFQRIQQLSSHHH

[19] = NIH-3T3 fibroblast cytotoxicity, dose response, cytotoxicity control, cell-based, fluorescence, Alamar Blue, secondary assay (AID 2327); type: functional;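 further: NIH-3T3 mouse fibroblasts cultured with fluconazole at 8 µg/mL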
[20] = HepG2 cell cytotoxicity, dose response, cytotoxicity control, dry powder samples (AID 720568); type: functional, cell-based
[21] = non-specific cell cytotoxicity, dose response, cytotoxicity control for PAX8 inhibitor project, plate reader, dry powder samples (AID 743021); type: functional, cell-based
[22] = Luminescence Cell-Based Dose Retest to Confirm Inhibitors of Cancer Stem Cells. [Related pubchem assays (depositor defined):AID2717, AID2721]; type: functional; conditions: Homo sapiens

## Cc1sc(NC(=O)C2CCCCC2C(=O)O)c(C(N)=O)c1-c1ccc(C(C)(C)C)cc1 (configuration not stated)
[1]
  IC50: 11.1 µM (active)
[2]
  IC50: 60.1 µM (active)
[3]
  Ki: 41.2 µM (inactive)
[4]
  EC50: 5.33 µM (active)

## O=C1C=C(Nc2ccc(Cl)c(C(F)(F)F)c2)C(=O)c2ccccc21
[5]
  AC50: 754 nM (active)
[6]
  AC50: > 70 µM (inactive)
[7]
  AC50: > 70 µM (inactive)

## O=S(=O)(Nc1cc(Sc2nc[nH]n2)c(O)c2ccccc12)c1ccc(F)cc1
[8]
  CC50: 14.3 µM (active)

## CN1CCc2cc3c(c4c2C1Cc1ccccc1-4)OCO3 (configuration not stated) [ROEMERINE]
[9]
  AC50: 3.68 µM (active)
[10]
  EC50: 21.5 µM (inconclusive)
[11]
  IC50: 10.2 µM (active)
[12]
  AC50: > 70 µM (inactive)
[13]
  AC50: 1.51 µM (active)
[14]
  EC50: 79.7 nM (active)
[15]
  EC50: > 38 µM (not active)
[16]
  AC50: 2.54 µM (active)
[17]
  CC50: > 40 µM (active)
[18]
  EC50: 16.8 µM (active)
[19]
  EC50: > 150 µM (inactive)

## Nc1nc(=S)c2ncn([C@@H]3O[C@H](CO)[C@@H](O)[C@H]3O)c2[nH]1 [THIOGUANOSINE]
[20]
  AC50: 6.38 µM (active)
[21]
  AC50: 2.21 µM (active)
[22]
  AC50: 301 nM (active)
